Source: patent publication US11986506B2, “Dietary supplements for inhibiting PDE5 and increasing cGMP levels” (LAILA NUTRACEUTICALS, priority 2017, dated 2024)
Where a name gives a salt, the structure may show the parent alone.

Tests used:
cyclic GMP = assay: Plasma cyclic GMP estimation by ELISA after mating period; type: in vivo, Sprague Dawley rats; conditions: 10 mg/kg oral, plasma after 30 minutes mating period
Method: After 30 minutes of mating period, blood sample were collected from all animals, plasma separated and subjected to cyclic-GMP estimation using cyclic GMP ELISA Kit supplied by Cayman (Cat No 581022) as per the procedure provided by the manufacturer. The plasma cyclic GMP modulation data is summarized in Table 8 and depicted in FIG. 2.
After 30 minutes of mating period, blood sample was collected from each animal, plasma separated and the cyclic-GMP content was estimated using cyclic GMP ELISA Kit supplied by Cayman (Cat No 581022) as per the procedure provided by the manufacturer.

male rats = assay: Stimulation of sexual behaviour in male rats (pre-copulatory and copulatory counts over 30 minutes); type: in vivo, Sprague Dawley rats; conditions: 10 mg/kg oral
Method: The extracts of the current invention were then evaluated for their efficacy in vivo to stimulate sexual behavior in male rats. Briefly, healthy Sprague Dawley rats were acclimatized and randomized into various treatment groups (G1 to G6) as summarized in table 5. These animals were introduced to mating with female counterparts, which were previously treated with 100 μg/rat of estradiol benzoate and 1 mg/rat of progesterone at approximately 48 hours and 4 hours respectively prior to mating. […] The scored test parameters include frequency of licking, anogenital sniffing, climbing, genital grooming, mounting and intromission.
Separately, a set of 42 healthy female rats were selected and each of them were treated with single dose of 100 μg of estradiol benzoate and 1 mg of progesterone at approximately 48 hours and 4 hours respectively prior to introduction to mating.
One hour after test substance administration, each male rat was allowed to mate with a female rat in oestrus phase. Male sexual behaviour was measured for a period of 30 minutes with the aid of video recording. The scored test parameters include frequency of licking, anogenital sniffing, climbing, genital grooming, mounting, intromission and the results are summarized in tables 6 and 7, and depicted in FIG. 1.

## CCCc1nn(C)c2c(=O)[nH]c(-c3cc(S(=O)(=O)N4CCN(C)CC4)ccc3OCC)nc12 [Sildenafil citrate]
Cyclic GMP
  Cyclic GMP levels (plasma): 18.79 ± 1.65 pmol/mL
Cyclic GMP; listed as sildenafil citrate
  Cyclic GMP levels (plasma): 18.79 pmol/mL
Male rats
  Climbing count Mean ± SE: 13.50 ± 2.96
  Genital grooming count Mean ± SE: 15.33 ± 9.20
  Intromission frequency Mean ± SE: 3.67 ± 2.55
  Mounting count Mean ± SE: 5.50 ± 2.43
  Sniffing count Mean ± SE: 25.83 ± 8.55
Male rats; 1 hr before mating, 30 minutes
  Licking count Mean ± SE: 14.83 ± 11.32
